Assay results as given in patent EP0908457B1, “3-(1,2-benzisothiazol- and isoxazol-5-Y1)-2,4(1H,3H)-pyrimidinedione or thione and 3-(1,2-benzisothiazol- and isoxazol-5-y1)-4(3H)-pyrimidinone or thione herbicidal agents” (BASF AKTIENGESELLSCHAFT, priority 1997, dated 1999).

Key:
[1] = system: Echinochloa oryzoides (Ard.) Fritsch.; assay: Preemergence weed control under flooded paddy conditions, ECHORC (Watergrass (Calif.)); type: in vivo; details: preemergence, flooded paddy, rated 3-4 weeks after treatment
[2] = system: Oryza sativa, (L.) Tebonnet; assay: Rice tolerance to post-transplant applications under flooded paddy conditions (Example 187), ORYSAT (Rice, Tebonnet); details: rated 3-4 weeks after treatment
Cyperus iria = assay: Preemergence weed control under flooded paddy conditions, CYPIR (Rice Flatsedge); type: in vivo; details: preemergence, flooded paddy, rated 3-4 weeks after treatment
Sagittaria pygmaea, L. = assay: Preemergence weed control under flooded paddy conditions, SAGPY (Arrowhead (Pygmaea)); type: in vivo; details: preemergence, flooded paddy, rated 3-4 weeks after treatment
[3] = system: Cyperus serotinus, Rottb.; assay: Preemergence weed control under flooded paddy conditions, CYPSE (Flatsedge); type: in vivo; details: preemergence, rated 3-4 weeks after treatment
[4] = system: Monochoria vaginalis, Presl.; assay: Preemergence weed control under flooded paddy conditions, MOOVA (Monochoria); type: in vivo; details: preemergence, flooded paddy, rated 3-4 weeks after treatment
Also: meaning of each grade not given here.

| Structure (SMILES) | herbicidal effect rating, ECHORC ([1]; Rate 0.0620 kg/ha) | herbicidal effect rating, ECHORC ([1]; Rate 0.1250 kg/ha) | herbicidal effect rating, ECHORC ([1]; Rate 0.2500 kg/ha) | herbicidal effect rating, ECHORC ([1]; Rate 0.5000 kg/ha) | herbicidal effect rating ORYSAT ([2]; Rate 0.0620 kg/ha) | herbicidal effect rating ORYSAT ([2]; Rate 0.1250 kg/ha) | herbicidal effect rating ORYSAT ([2]; Rate 0.2500 kg/ha) | herbicidal effect rating ORYSAT ([2]; Rate 0.5000 kg/ha) | herbicidal effect rating, CYPIR (Cyperus iria; Rate 0.0620 kg/ha) | herbicidal effect rating, CYPIR (Cyperus iria; Rate 0.1250 kg/ha) | herbicidal effect rating, CYPIR (Cyperus iria; Rate 0.2500 kg/ha) | herbicidal effect rating, SAGPY (Sagittaria pygmaea, L.; Rate 0.0620 kg/ha) | herbicidal effect rating, SAGPY (Sagittaria pygmaea, L.; Rate 0.1250 kg/ha) | herbicidal effect rating, SAGPY (Sagittaria pygmaea, L.; Rate 0.2500 kg/ha) | herbicidal effect rating, CYPSE ([3]; Rate 0.0620 kg/ha) | herbicidal effect rating, CYPSE ([3]; Rate 0.1250 kg/ha) | herbicidal effect rating, CYPSE ([3]; Rate 0.2500 kg/ha) | herbicidal effect rating, MOOVA ([4]; Rate 0.0620 kg/ha) | herbicidal effect rating, MOOVA ([4]; Rate 0.1250 kg/ha) | herbicidal effect rating, MOOVA ([4]; Rate 0.2500 kg/ha) | other results |
| --- | --- | --- | --- | --- | --- | --- | --- | --- | --- | --- | --- | --- | --- | --- | --- | --- | --- | --- | --- | --- | --- |
| CCOC(=O)C(F)(F)Oc1ccc(C)cc1-c1nsc2ccc(-n3c(=O)cc(C(F)(F)F)n(C)c3=O)cc12 [Example 559, Acetic acid, {{2-{5-[3,6-dihydro-3-methyl-2,6-dioxo-4-(trifluoromethyl)-1(2H)-pyrimidinyl]-1,2-benzisothiazol-3-yl}-p-tolyl}oxy}difluoro-, ethyl ester] | 3.0 | 3.0 | 6.0 | 9.0 | 1.0 | 1.0 | 2.0 | 2.0 | 0.0 | 0.0 | 0.0 | 0.0 | 0.0 | 0.0 | 0.0 | 0.0 | 9.0 | 9.0 | 9.0 | 9.0 | herbicidal effect rating, CYPIR (Cyperus iria; Rate 0.5000 kg/ha): 4.0; herbicidal effect rating, SAGPY (Sagittaria pygmaea, L.; Rate 0.5000 kg/ha): 0.0; herbicidal effect rating, CYPSE ([3]; Rate 0.5000 kg/ha): 9.0; herbicidal effect rating, MOOVA ([4]; Rate 0.5000 kg/ha): 9.0 |
| Cc1ccc(OCC(=O)NS(=O)(=O)C(C)C)c(-c2nsc3ccc(-n4c(=O)cc(C(F)(F)F)n(C)c4=O)cc23)c1 [Example 560, Acetamide, 2-{{2-{5-[3,6-dihydro-3-methyl-2,6-dioxo-4-(trifluoromethyl)-1(2H)-pyrimidinyl]-1,2-benzisothiazol-3-yl}-p-tolyl}oxy}-N-(isopropylsulfonyl)-] | 3.0 | 4.6 | 9.0 | 7.0 | 3.0 | 2.0 | 4.0 | 2.0 | 2.0 | 7.0 | 9.0 | 0.0 | 0.0 | 0.0 | 2.0 | 7.0 | 9.0 | 9.0 | 9.0 | 9.0 | herbicidal effect rating, ECHORC ([1]; Rate 0.0320 kg/ha): 2.0; herbicidal effect rating ORYSAT ([2]; Rate 0.0320 kg/ha): 3.0; herbicidal effect rating, CYPIR (Cyperus iria; Rate 0.0320 kg/ha): 0.0; herbicidal effect rating, CYPIR (Cyperus iria; Rate 0.5000 kg/ha): 3.0; herbicidal effect rating, SAGPY (Sagittaria pygmaea, L.; Rate 0.0320 kg/ha): 0.0; herbicidal effect rating, SAGPY (Sagittaria pygmaea, L.; Rate 0.5000 kg/ha): 0.0; herbicidal effect rating, CYPSE ([3]; Rate 0.0320 kg/ha): 0.0; herbicidal effect rating, CYPSE ([3]; Rate 0.5000 kg/ha): 9.0; herbicidal effect rating, MOOVA ([4]; Rate 0.0320 kg/ha): 8.0; herbicidal effect rating, MOOVA ([4]; Rate 0.5000 kg/ha): 9.0 |
| CNC(=O)COc1ccc(C)cc1-c1nsc2ccc(-n3c(=O)cc(C(F)(F)F)n(C)c3=O)cc12 [Example 561, Acetamide, 2-{{2-{5-[3,6-dihydro-3-methyl-2,6-dioxo-4-(trifluoromethyl)-1(2H)-pyrimidinyl]-1,2-benzisothiazol-3-yl}-p-tolyl}oxy}-N-methyl-] | 4.8 | 6.4 | 9.0 | 9.0 | 4.0 | 3.5 | 4.5 | 2.0 | 6.0 | 8.5 | 9.0 | 0.0 | 1.0 | 3.0 | 0.0 | 0.0 | 0.0 | 9.0 | 9.0 | 9.0 | herbicidal effect rating, ECHORC ([1]; Rate 0.0320 kg/ha): 3.6; herbicidal effect rating ORYSAT ([2]; Rate 0.0320 kg/ha): 2.5; herbicidal effect rating, CYPIR (Cyperus iria; Rate 0.0320 kg/ha): 3.0; herbicidal effect rating, CYPIR (Cyperus iria; Rate 0.5000 kg/ha): 6.0; herbicidal effect rating, SAGPY (Sagittaria pygmaea, L.; Rate 0.0320 kg/ha): 0.0; herbicidal effect rating, SAGPY (Sagittaria pygmaea, L.; Rate 0.5000 kg/ha): 0.0; herbicidal effect rating, CYPSE ([3]; Rate 0.0320 kg/ha): 0.0; herbicidal effect rating, CYPSE ([3]; Rate 0.5000 kg/ha): 9.0; herbicidal effect rating, MOOVA ([4]; Rate 0.0320 kg/ha): 9.0; herbicidal effect rating, MOOVA ([4]; Rate 0.5000 kg/ha): 9.0 |
| CNC(=O)COc1ccccc1-c1nsc2ccc(-n3c(=O)cc(C(F)(F)F)n(C)c3=O)cc12 [Example 562, Acetamide, 2-{o-{5-[3,6-dihydro-3-methyl-2,6-dioxo-4-(trifluoromethyl)-1(2H)-pyrimidinyl]-1,2-benzisothiazol-3-yl}phenoxy}-N-methyl-] | 5.1 | 5.1 | 9.0 | 9.0 | 3.0 | 4.0 | 9.0 | 6.0 | 7.0 | 9.0 | 9.0 | 0.0 | 5.0 | 7.0 | 4.0 | 9.0 | 9.0 | 9.0 | 9.0 | 9.0 | herbicidal effect rating, ECHORC ([1]; Rate 0.0320 kg/ha): 2.7; herbicidal effect rating ORYSAT ([2]; Rate 0.0320 kg/ha): 2.0; herbicidal effect rating, CYPIR (Cyperus iria; Rate 0.0320 kg/ha): 2.0; herbicidal effect rating, CYPIR (Cyperus iria; Rate 0.5000 kg/ha): 3.0; herbicidal effect rating, SAGPY (Sagittaria pygmaea, L.; Rate 0.0320 kg/ha): 0.0; herbicidal effect rating, SAGPY (Sagittaria pygmaea, L.; Rate 0.5000 kg/ha): 0.0; herbicidal effect rating, CYPSE ([3]; Rate 0.5000 kg/ha): 9.0; herbicidal effect rating, MOOVA ([4]; Rate 0.0320 kg/ha): 9.0; herbicidal effect rating, MOOVA ([4]; Rate 0.5000 kg/ha): 9.0 |
| Cn1c(C(F)(F)F)cc(=O)n(-c2ccc3snc(-c4ccccc4OCC(N)=O)c3c2)c1=O [Example 563, Acetamide, 2-{o-{5-[3,6-dihydro-3-methyl-2,6-dioxo-4-(trifluoromethyl)-1(2H)-pyrimidinyl]-1,2-benzisothiazol-3-yl}phenoxy}-] | 5.1 | 5.6 | 9.0 | 9.0 | 7.0 | 7.0 | 7.0 | 4.0 | 2.0 | 6.0 | 6.0 | 0.0 | 0.0 | 2.0 | 0.0 | 0.0 | 4.0 | 9.0 | 9.0 | 9.0 | herbicidal effect rating, ECHORC ([1]; Rate 0.0320 kg/ha): 3.6; herbicidal effect rating ORYSAT ([2]; Rate 0.0320 kg/ha): 4.0; herbicidal effect rating, CYPIR (Cyperus iria; Rate 0.0320 kg/ha): 0.0; herbicidal effect rating, CYPIR (Cyperus iria; Rate 0.5000 kg/ha): 9.0; herbicidal effect rating, SAGPY (Sagittaria pygmaea, L.; Rate 0.0320 kg/ha): 0.0; herbicidal effect rating, SAGPY (Sagittaria pygmaea, L.; Rate 0.5000 kg/ha): 4.0; herbicidal effect rating, CYPSE ([3]; Rate 0.0320 kg/ha): 0.0; herbicidal effect rating, CYPSE ([3]; Rate 0.5000 kg/ha): 0.0; herbicidal effect rating, MOOVA ([4]; Rate 0.0320 kg/ha): 8.0; herbicidal effect rating, MOOVA ([4]; Rate 0.5000 kg/ha): 9.0 |
| Cn1c(C(F)(F)F)cc(=O)n(-c2ccc3snc(/C=C/C(=O)c4ccccc4)c3c2)c1=O [Example 564, 2,4(1H,3H)-Pyrimidinedione, 1-methyl-3-[3-(3-oxo-3-phenylpropenyl)-1,2-benzisothiazol-5-yl]-6-(trifluoromethyl)-, (E)-] | 4.0 | 5.0 | 7.0 |  | 0.0 | 0.0 | 0.0 |  | 6.0 | 7.0 | 9.0 | 0.0 | 0.0 | 0.0 | 0.0 | 0.0 | 4.0 | 9.0 | 9.0 | 9.0 | herbicidal effect rating, ECHORC ([1]; Rate 0.0320 kg/ha): 4.0; herbicidal effect rating ORYSAT ([2]; Rate 0.0320 kg/ha): 0.0; herbicidal effect rating, CYPIR (Cyperus iria; Rate 0.0320 kg/ha): 6.0; herbicidal effect rating, SAGPY (Sagittaria pygmaea, L.; Rate 0.0320 kg/ha): 0.0; herbicidal effect rating, CYPSE ([3]; Rate 0.0320 kg/ha): 0.0; herbicidal effect rating, MOOVA ([4]; Rate 0.0320 kg/ha): 9.0 |
